# Laboratory results: ChEMBL document CHEMBL4665868, “Study on the interaction between 4-(1H-indol-3-yl)-2-(p-tolyl)quinazoline-3-oxide and human serum albumin” (Bioorg Med Chem, 2020)
# How the values were obtained:
# Format in all cases: ADME
# [1] = target: T1, Albumin (Homo sapiens, UniProt P02768); test: Binding affinity to HSA assessed as Stern-Volmer quenching constant at 298 K by fluorescence spectrophotometer assay; settings: isolated protein
# [2] = target: T1, Albumin; test: Binding affinity to HSA assessed as causing the change of the microenvironment of tyrosine residue by measuring red shift at 0 to 100 uM after 5 mins by fluorescence based Synchronous fluorescence spectroscopy; settings: isolated protein, dose 0-100 µM
# [3] = target: T1, Albumin; test: Binding affinity to HSA […] site assessed as quenching in presence of digitoxin at 0 to 100 uM after 5 mins by fluorescence based site competition assay; settings: isolated protein
# [4] = target: T1, Albumin; test: Binding affinity to HSA assessed as binding constant at 303 K by fluorescence spectrophotometer assay; settings: isolated protein
# [5] = target: T1, Albumin; test: Binding affinity to HSA assessed as Stern-Volmer quenching constant at 300 K by fluorescence spectrophotometer assay; settings: isolated protein
# [6] = target: T1, Albumin; test: Binding affinity to HSA assessed as change in enthalpy at 298 K by Van't Hoff plot analysis; settings: isolated protein
# [7] = target: T1, Albumin; test: Binding affinity to HSA assessed as quenching constant at 298 K by fluorescence spectrophotometer assay; settings: isolated protein
# [8] = target: T1, Albumin; test: Binding affinity to HSA […] site assessed as quenching in presence of warfarin at 0 to 100 uM after 5 mins by fluorescence based site competition assay; settings: isolated protein, dose 0-100 µM
# [9] = target: T1, Albumin; test: Binding affinity to HSA assessed as quenching constant at 303 K by fluorescence spectrophotometer assay; settings: isolated protein
# [10] = target: T1, Albumin; test: Binding affinity to HSA assessed as binding constant at 298 K by fluorescence spectrophotometer assay; settings: isolated protein
# [11] = target: T1, Albumin; test: Binding affinity to HSA […] site assessed as quenching in presence of ibuprofen at 0 to 100 uM after 5 mins by fluorescence based site competition assay; settings: isolated protein
# [12] = target: T1, Albumin; test: Binding affinity to HSA assessed as quenching constant at 300 K by fluorescence spectrophotometer assay; settings: isolated protein
# [13] = target: T1, Albumin; test: Binding affinity to HSA assessed as decrease in fluorescence intensity at 100 uM at by fluorescence spectrophotometer assay; set-up: scale not given: the % may be the effect or the level left; settings: isolated protein
# [14] = target: T1, Albumin; test: Binding affinity to HSA assessed as binding constant at 300 K by fluorescence spectrophotometer assay; settings: isolated protein
# [15] = target: T1, Albumin; test: Binding affinity to HSA assessed as change in entropy at 298 K by Van't Hoff plot analysis; settings: isolated protein
# [16] = target: T1, Albumin; test: Binding affinity to HSA assessed as Stern-Volmer quenching constant at 303 K by fluorescence spectrophotometer assay; settings: isolated protein
# T1 sequence (P02768 whole entry): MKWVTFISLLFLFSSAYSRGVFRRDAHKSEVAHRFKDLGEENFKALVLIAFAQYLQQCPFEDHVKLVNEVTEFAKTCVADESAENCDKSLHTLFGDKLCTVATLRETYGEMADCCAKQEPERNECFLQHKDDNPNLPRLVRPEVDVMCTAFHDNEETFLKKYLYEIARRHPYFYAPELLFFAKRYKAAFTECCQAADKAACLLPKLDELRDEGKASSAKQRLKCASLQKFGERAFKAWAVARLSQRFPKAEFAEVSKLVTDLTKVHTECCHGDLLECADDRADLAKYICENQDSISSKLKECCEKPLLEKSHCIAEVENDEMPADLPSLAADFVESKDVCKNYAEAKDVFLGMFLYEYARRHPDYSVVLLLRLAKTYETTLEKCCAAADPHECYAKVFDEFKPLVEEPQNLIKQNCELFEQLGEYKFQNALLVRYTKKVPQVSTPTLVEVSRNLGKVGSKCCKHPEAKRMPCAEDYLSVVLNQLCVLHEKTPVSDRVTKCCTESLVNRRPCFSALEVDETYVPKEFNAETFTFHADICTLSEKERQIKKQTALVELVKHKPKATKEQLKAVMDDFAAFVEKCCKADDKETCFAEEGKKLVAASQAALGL
compound,measurement,setting,value
Cc1ccc(-c2nc3ccccc3c(-c3c[nH]c4ccccc34)[n+]2[O-])cc1,KSV,[1],1.4 10^4L/mol
same,Activity,[2],9 nm
same,Activity,[3],Active
same,K,[4],1.03 10^4L/mol
same,KSV,[5],1.39 10^4L/mol
same,deltaH,[6],33.227 kcal/mol
same,Kq,[7],1.4 10^12L/mol.s
same,Activity,[8],Not Active
same,Kq,[9],1.33 10^12L/mol.s
same,K,[10],2.47 10^4L/mol
same,Activity,[11],Active
same,Kq,[12],1.39 10^12L/mol.s
same,Activity,[13],49.2%
same,K,[14],1.7 10^4L/mol
same,deltaS,[15],436 J/mol·K
same,KSV,[16],1.33 10^4L/mol
